Measurements: patent US20080280837A1, “Biologically Active Compounds with Anti-Angiogenic Properties” (priority 2004, published 2008)

Target: T1, Human SST5 somatostatin receptor (SSTR5) (Homo sapiens, UniProt P35346)
T1 construct: expressed in transfected cells; host or cells: HEK-293 EBNA
Test: Filter plate assay for SST5 receptor, displacement of [125I]SST-14
Assay type: binding
Outline: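 HEK-293 EBNA membranes expressing human SST5 (5.5 μg) incubated 60 min at 25 °C with 4 nM [125I]SST-14 and compound in pH 7.5 Tris/EGTA/MgCl2/sucrose buffer. Bound radioactivity collected on PEI-coated glass fiber filters and counted; triplicate 1:5 dilution series from 125 μM, non-specific binding with excess cold ligand.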

T1 sequence (P35346 whole entry): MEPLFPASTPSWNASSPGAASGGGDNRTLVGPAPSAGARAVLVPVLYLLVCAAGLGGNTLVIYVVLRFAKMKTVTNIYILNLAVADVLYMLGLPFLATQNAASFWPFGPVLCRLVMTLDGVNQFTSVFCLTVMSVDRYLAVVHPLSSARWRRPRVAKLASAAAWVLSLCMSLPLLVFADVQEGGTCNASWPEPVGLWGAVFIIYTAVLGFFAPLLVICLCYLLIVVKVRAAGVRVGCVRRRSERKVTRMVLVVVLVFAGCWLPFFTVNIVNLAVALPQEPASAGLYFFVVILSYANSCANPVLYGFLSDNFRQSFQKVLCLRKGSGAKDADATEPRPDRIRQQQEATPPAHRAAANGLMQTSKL

Row | Structure (SMILES) | SSTR5 Inhib 0.5 uM % (inhibition of binding of SST-14 to SSTR5) [%] | SSTR5 Inhib 10 uM % (inhibition of binding of SST-14 to SSTR5) [%]
1 | COC[C@H]1OC(OCc2ccc(Cl)cc2)[C@H](NC(=O)CCCN)[C@@H](OCc2cccc(O)c2)[C@@H]1O (stereo partly drawn) [Compound 113] | 50 | 83
2 | CSC1O[C@H](COCc2ccc3ccccc3c2)[C@@H](O)[C@@H](OCc2ccc3ccccc3c2)[C@H]1NC(=O)CCNC(=N)N (stereo partly drawn) [Compound 114] | 47 | 82
3 | COC1C(O)C(COCc2ccc3ccccc3c2)OC(OCc2ccc3ccccc3c2)C1NC(=O)CCNC(=N)N (stereo not drawn) [Compound 115] | 50 | 82
4 | CSC1O[C@H](COCc2ccc3ccccc3c2)[C@@H](O)[C@@H](OCc2ccc(Cl)cc2)[C@H]1NC(=O)CNC(=N)N (stereo partly drawn) [Compound 116] | 42 | 82
5 | COC[C@H]1OC(OCc2ccc(Cl)cc2)[C@H](NC(=O)CCCN)[C@H](OCc2ccccc2)[C@@H]1O (stereo partly drawn) [Compound 117] | 46 | 82
6 | CSC1O[C@H](COCc2ccccc2)[C@@H](O)[C@@H](OCc2ccc(Cl)cc2)[C@H]1NC(=O)CCNC(=N)N (stereo partly drawn) [Compound 118] | 37 | 81
7 | COC[C@H]1OC(OCc2ccccc2)[C@H](NC(=O)CNC(=N)N)[C@H](OCc2ccc(-c3ccccc3)cc2)[C@@H]1O (stereo partly drawn) [Compound 119] | 37 | 81
8 | COC[C@H]1OC(OCc2ccc(-c3ccccc3)cc2)[C@H](NC(=O)CCCNC(=N)N)[C@@H](OCc2ccc(Cl)cc2)[C@@H]1O (stereo partly drawn) [Compound 120] | 46 | 81
9 | CO[C@H]1[C@H](O)[C@@H](COCc2ccc3ccccc3c2)OC(OCc2ccc(Cl)cc2)[C@@H]1NC(=O)CCCN (stereo partly drawn) [Compound 121] | 32 | 81
10 | CO[C@H]1[C@H](O)[C@@H](COCc2ccc(Cl)cc2)OC(OCc2ccc(Cl)cc2)[C@@H]1NC(=O)CCCN (stereo partly drawn) [Compound 122] | 39 | 81
11 | COC[C@H]1OC(OCc2ccc(Cl)cc2)[C@H](NC(=O)CCNC(=N)N)[C@@H](OCc2ccc(Cl)cc2)[C@@H]1O (stereo partly drawn) [Compound 123] | 40 | 81
12 | NCCC(=O)N[C@H]1CO[C@H](COCc2ccc(-c3ccccc3)cc2)[C@@H](O)[C@H]1OCc1ccc(Cl)cc1 [Compound 124] | 50 | 80
13 | CSC1O[C@H](COCc2ccc(Cl)cc2)[C@@H](O)[C@@H](OCc2ccc3ccccc3c2)[C@H]1NC(=O)CCNC(=N)N (stereo partly drawn) [Compound 125] | 34 | 80
14 | CO[C@H]1[C@H](O)[C@@H](COCc2ccc3ccccc3c2)OC(OCc2ccc3ccccc3c2)[C@@H]1NC(=O)CNC(=N)N (stereo partly drawn) [Compound 126] | 57 | 80
15 | CSC1O[C@H](COCc2ccc(-c3ccccc3)cc2)[C@@H](O)[C@@H](OCc2ccc3ccccc3c2)[C@H]1NC(=O)CCCN (stereo partly drawn) [Compound 127] | 48 | 80

Continued, values first:

Row | SSTR5 Inhib 0.5 uM % (inhibition of binding of SST-14 to SSTR5) [%] | SSTR5 Inhib 10 uM % (inhibition of binding of SST-14 to SSTR5) [%] | Structure (SMILES)
16 | 28 | 80 | CSC1O[C@H](COCc2ccccc2)[C@@H](O)[C@@H](OCc2ccc3ccccc3c2)[C@H]1NC(=O)CCNC(=N)N (stereo partly drawn) [Compound 128]
17 | 36 | 80 | COC[C@H]1OC(OCc2ccc(-c3ccccc3)cc2)[C@H](NC(=O)CNC(=N)N)[C@@H](OCc2ccc(-c3ccccc3)cc2)[C@@H]1O (stereo partly drawn) [Compound 129]
18 | 40 | 80 | COC[C@H]1OC(OCc2ccc(-c3ccccc3)cc2)[C@H](NC(=O)CCCNC(=N)N)[C@@H](OCc2ccc(-c3ccccc3)cc2)[C@@H]1O (stereo partly drawn) [Compound 130]
19 | 52 | 80 | CSC1O[C@H](COCc2ccc3ccccc3c2)[C@@H](O)[C@@H](OCc2ccc3ccccc3c2)[C@H]1NC(=O)CNC(=N)N (stereo partly drawn) [Compound 131]
20 | 39 | 80 | COC[C@H]1OC(OCCc2ccccc2)[C@H](NC(=O)CCCNC(=N)N)[C@@H](OCc2ccc(-c3ccccc3)cc2)[C@@H]1O (stereo partly drawn) [Compound 132]
21 | 24 | 80 | COC[C@H]1OC(OCc2ccc3ccccc3c2)[C@H](NC(=O)CNC(=N)N)[C@H](OCc2ccc(Cl)cc2)[C@@H]1O (stereo partly drawn) [Compound 133]
22 | 55 | 79 | COC1C(O)C(COCc2ccc(Cl)cc2)OC(OCc2ccc3ccccc3c2)C1NC(=O)CCCNC(=N)N (stereo not drawn) [Compound 134]
23 | 45 | 79 | COC[C@H]1OC(OCc2ccc3ccccc3c2)[C@H](NC(=O)CCCNC(=N)N)[C@@H](OCc2ccccc2)[C@@H]1O (stereo partly drawn) [Compound 135]
24 | 26 | 79 | COC1C(O)C(COCc2ccc(-c3ccccc3)cc2)OC(OCc2ccc(-c3ccccc3)cc2)C1NC(=O)CCNC(=N)N (stereo not drawn) [Compound 136]
25 | 43 | 79 | COC[C@H]1OC(OCc2ccc3ccccc3c2)[C@H](NC(=O)CNC(=N)N)[C@@H](OCc2ccc3ccccc3c2)[C@@H]1O (stereo partly drawn) [Compound 137]
26 | 39 | 79 | COC[C@H]1OC(OCc2ccccc2)[C@H](NC(=O)CCCNC(=N)N)[C@H](OCc2ccc(Cl)cc2)[C@@H]1O (stereo partly drawn) [Compound 138]
27 | 34 | 79 | CSC1O[C@H](COCc2ccc(-c3ccccc3)cc2)[C@@H](O)[C@@H](OCc2ccc3ccccc3c2)[C@H]1NC(=O)CNC(=N)N (stereo partly drawn) [Compound 139]
28 | 38 | 78 | COC1C(O)C(COCc2ccc3ccccc3c2)OC(OCCc2ccccc2)C1NC(=O)CCCN (stereo not drawn) [Compound 140]
29 | 36 | 78 | COC1C(O)C(COCc2ccc(Cl)cc2)OC(OCCc2ccccc2)C1NC(=O)CCCN (stereo not drawn) [Compound 141]
30 | 44 | 78 | CSC1O[C@H](COCc2ccc(Cl)cc2)[C@@H](O)[C@@H](OCc2ccccc2)[C@H]1NC(=O)CCNC(=N)N (stereo partly drawn) [Compound 142]
